Experiments:
St_RhaZ = biological target: T1, St_RhaZ (Salmonella enterica, UniProt Q8ZKS2); assay: coupled NADH oxidation at […] nm; type: biochemical; conditions: substrate made in situ by Ec_RhaA, Tm_RhaB and St_RhaD; NADH 0.25 mM; pH 7.5; 25 C; no dehydrogenase activity with NAD+
T1 construct: gene STM4044; full-length, N-terminal His6 tag, expressed in E. coli, Ni-NTA purified
T1 sequence (Q8ZKS2 1-382): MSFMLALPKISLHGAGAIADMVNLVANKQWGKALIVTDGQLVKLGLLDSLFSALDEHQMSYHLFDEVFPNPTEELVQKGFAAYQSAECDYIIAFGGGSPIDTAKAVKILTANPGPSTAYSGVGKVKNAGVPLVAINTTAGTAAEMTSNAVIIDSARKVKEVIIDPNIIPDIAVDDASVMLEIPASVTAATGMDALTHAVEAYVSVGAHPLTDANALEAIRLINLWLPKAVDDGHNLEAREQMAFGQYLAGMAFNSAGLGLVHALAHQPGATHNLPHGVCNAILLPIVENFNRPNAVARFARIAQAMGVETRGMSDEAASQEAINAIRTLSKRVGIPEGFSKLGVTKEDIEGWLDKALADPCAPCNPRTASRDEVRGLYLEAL
Text: St_RhaZ was active under these conditions

Ca_RhaEW = biological target: T2, Ca_RhaEW (Chloroflexus aurantiacus, UniProt A9WGG0); assay: coupled NADH detection at […] nm and GC-MS of products; type: biochemical; conditions: substrate made in situ from L-Rha by Ec_RhaA and Tm_RhaB, NAD+ 1.4 mM, Zn2+, pH 8, 30-70 C
T2 construct: gene Caur_2283; full-length, N-terminal His6 tag, expressed in E. coli, Ni-NTA purified
T2 sequence (A9WGG0 entry or part of it): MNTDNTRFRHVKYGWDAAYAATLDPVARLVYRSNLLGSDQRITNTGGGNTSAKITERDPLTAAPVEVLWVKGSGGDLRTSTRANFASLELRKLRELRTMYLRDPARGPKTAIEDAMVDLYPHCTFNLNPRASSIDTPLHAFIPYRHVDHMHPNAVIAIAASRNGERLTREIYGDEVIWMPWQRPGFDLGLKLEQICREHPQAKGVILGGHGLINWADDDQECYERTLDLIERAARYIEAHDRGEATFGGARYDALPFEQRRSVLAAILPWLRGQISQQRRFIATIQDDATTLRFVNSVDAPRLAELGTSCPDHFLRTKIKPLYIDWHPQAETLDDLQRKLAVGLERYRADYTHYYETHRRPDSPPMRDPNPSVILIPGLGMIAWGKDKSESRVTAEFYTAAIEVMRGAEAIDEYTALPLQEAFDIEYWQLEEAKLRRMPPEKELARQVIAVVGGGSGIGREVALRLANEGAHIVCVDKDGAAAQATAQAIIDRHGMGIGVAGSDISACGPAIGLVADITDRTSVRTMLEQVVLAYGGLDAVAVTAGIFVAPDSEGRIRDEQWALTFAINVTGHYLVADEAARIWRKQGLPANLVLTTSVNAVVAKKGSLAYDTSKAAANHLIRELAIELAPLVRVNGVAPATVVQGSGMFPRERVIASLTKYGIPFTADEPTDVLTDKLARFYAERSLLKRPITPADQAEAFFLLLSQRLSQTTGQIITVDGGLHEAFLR

Bs_RhaEW = biological target: T3, Bs_RhaEW (Bacillus subtilis, UniProt P40747); assay: coupled NADH detection at […] nm; type: biochemical; conditions: substrate made in situ from L-Rha by Ec_RhaA and Tm_RhaB; NAD+ 2.5 mM; Zn2+; pH 7.5; 25 C
T3 construct: gene yuxG; full-length, N-terminal His6 tag, expressed in E. coli, Ni-NTA purified
T3 sequence (P40747 whole entry): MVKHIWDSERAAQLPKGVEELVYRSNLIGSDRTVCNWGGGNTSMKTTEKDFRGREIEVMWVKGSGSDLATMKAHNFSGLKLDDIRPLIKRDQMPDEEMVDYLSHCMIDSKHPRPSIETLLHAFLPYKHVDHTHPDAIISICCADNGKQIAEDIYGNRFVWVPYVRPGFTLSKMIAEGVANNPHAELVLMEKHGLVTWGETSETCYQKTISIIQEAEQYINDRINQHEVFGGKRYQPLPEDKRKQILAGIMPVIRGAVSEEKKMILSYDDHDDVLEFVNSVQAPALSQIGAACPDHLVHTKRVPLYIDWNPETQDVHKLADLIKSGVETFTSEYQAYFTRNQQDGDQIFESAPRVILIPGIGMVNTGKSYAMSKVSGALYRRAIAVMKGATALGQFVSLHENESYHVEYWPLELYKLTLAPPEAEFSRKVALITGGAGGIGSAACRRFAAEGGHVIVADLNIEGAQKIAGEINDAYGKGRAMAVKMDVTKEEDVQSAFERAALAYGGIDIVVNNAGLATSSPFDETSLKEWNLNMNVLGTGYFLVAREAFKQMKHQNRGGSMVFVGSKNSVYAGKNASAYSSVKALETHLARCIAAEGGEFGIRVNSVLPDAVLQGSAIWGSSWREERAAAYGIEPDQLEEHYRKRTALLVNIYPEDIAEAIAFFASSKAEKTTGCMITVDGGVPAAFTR

RhaR = biological target: T4, RhaR (Chloroflexus aurantiacus, UniProt A9WGG7); assay: EMSA, loss of RhaR-DNA binding; conditions: effector at 2 mM; RhaR 1 uM; pH 8.0; 50 C; L-rhamnulose made enzymatically from L-Rha by Ec_RhaA; Figure 5 legend prints L-rhamnose for this effect (apparent misprint)
T4 construct: gene Caur_2290

RhaR (DeoR family) = biological target: T5, RhaR (DeoR family) (Chloroflexus aurantiacus J-10-fl, UniProt A9WGG7 1-260); assay: EMSA; RhaR 0.25-1 uM, no effector; poly(dI-dC); EMSA: 50 mM Tris-HCl pH 8.0, 150 mM NaCl, 5 mM MgCl2, 1 mM DTT (printed DDT), 0.05% NP-40, 2.5% glycerol, 1 ug poly(dI-dC), 0.2 nM DNA, 20 ul, 25 min at 50 C; 1.5% agarose gel at room temperature; conditions: protein: recombinant; tags: His6-Smt3 (SUMO) N-terminal tag, cleaved with Ulp1; blunt
T5 sequence: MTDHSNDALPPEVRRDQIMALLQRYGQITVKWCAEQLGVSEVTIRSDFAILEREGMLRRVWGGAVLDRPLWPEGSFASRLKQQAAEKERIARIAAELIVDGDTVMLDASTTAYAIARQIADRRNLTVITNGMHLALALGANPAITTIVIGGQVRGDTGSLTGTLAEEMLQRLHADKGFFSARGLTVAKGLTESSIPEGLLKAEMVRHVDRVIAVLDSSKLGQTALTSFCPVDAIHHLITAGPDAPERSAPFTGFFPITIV

NC(=O)C1=CN([C@@H]2O[C@H](COP(=O)(O)OP(=O)(O)OC[C@H]3O[C@@H](n4cnc5c(N)ncnc54)[C@H](O)[C@@H]3O)[C@@H](O)[C@H]2O)C=CC1 [NADH]
coupled NADH oxidation at 340 nm (St_RhaZ): with the exception of supplying NADH as the cofactor. St_RhaZ was active under these conditions

NC(=O)c1ccc[n+]([C@@H]2O[C@H](COP(=O)(O)OP(=O)(O)OC[C@H]3O[C@@H](n4cnc5c(N)ncnc54)[C@H](O)[C@@H]3O)[C@@H](O)[C@H]2O)c1 [NAD^+]
coupled NADH detection at 340 nm and GC-MS of products (Ca_RhaEW; no product without NAD+, no activity with NADH): exclusion of NAD^+ which is an essential cofactor of L-lactaldehyde dehydrogenase | coupled NADH detection at 340 nm (Bs_RhaEW): the reduction of NAD^+ or oxidation of NADH was monitored

C[C@@H]1OC(O)(CO)[C@H](O)[C@H]1O (stereo partly drawn) [L-rhamnulose]
EMSA, loss of RhaR-DNA binding (RhaR): L-rhamnulose abolished the specific DNA-binding ability of RhaR

C[C@H](O)[C@H](O)[C@@H](O)C(=O)COP(=O)(O)O [L-rhamnulose-1-P]
coupled NADH detection at 340 nm and GC-MS of products (Ca_RhaEW): Ca_RhaEW acts in vitro to convert L-rhamnulose-1-P to L-lactate and DHAP | coupled NADH detection at 340 nm (Bs_RhaEW): The Bs_RhaEW protein showed weak, but reproducible activity

B1: rhaR upstream 48-bp fragment (38-bp RhaR operator) (dsDNA)
DNA 1: GGGGGTTCGTAAAATCTCGTAAGTACTTGACAAATCTTGAAAAGGGGG
DNA 2: CCCCCTTTTCAAGATTTGTCAAGTACTTACGAGATTTTACGAACCCCC
binding result (RhaR (DeoR family)): binds
